The nature of data set [1]: Bidirectional permeability assay (Caco-2 cells). Particulars: human, Caco-2, absorptive direction (A2B), 10 μM in FaSSIF buffer. It counts as in vitro ADME. The method, then:
Bidirectional Permeability Assay (Caco-2 Cells)
Caco-2 cells (Evotec) were seeded at a density of 70,000 cells/well in Millicell® 24-well cell culture insert plates and maintained in an incubator (37° C., 5% CO2, 95% RH) for 21 days with media change on alternate days.
Stock solutions (10 mM) of the test compounds, atenolol (low permeability marker), propranolol (high permeability marker) and digoxin (substrate for P-gp transport pathway) were prepared in dimethylsulfoxide (DMSO). An intermediate stock solution (1 mM) was prepared by diluting 10 μL of 10 mM master stock solution with 90 μL of neat DMSO. A working stock solution (10 μM) was prepared by diluting 50 μL of 1 mM with 4950 μL of FaSSIF buffer. Post addition of compounds to the FaSSIF, samples were subjected to sonication for 2 hours, and centrifuged at 4000 RPM for 30 minutes at 37° C. The 4 mL of resultant supernatant was directly used in the assay. The final DMSO concentration in the transport experiments was 1%.
On the day of assay, Caco-2 monolayers were washed twice with transport buffer (HBSS, pH 7.4) and pre-incubated for 30 min (37° C., 5% CO2, 95% RH) in an incubator. The electrical resistance of the monolayers was measured with a Millicell®—ERS system. Monolayers with trans-epithelial electrical resistance (TEER) values greater than 350 ohm·cm^2 were selected for the assay.
The assay was conducted in absorptive direction (A2B) and secretory (B2A) directions. Transport experiments were initiated by addition of transport assay buffer (FaSSIF buffer prepared in HBSS) consisting of compounds to the donor compartment (apical chamber A-B; basolateral chamber B-A) in duplicate (n=2) wells. Drug free HBSS buffer (pH 7.4) containing 1% bovine serum albumin (BSA) was introduced to the receiver (A-B-basolateral; B-A-Apical) compartments. The volumes of apical and basolateral compartments were 0.4 and 0.8 mL, respectively. After adding dosing solution, plates were incubated in an incubator for 120 minutes at 37° C. After 120 minutes, donor and receiver samples were collected and matrix matched (1:1, 30 μL study sample+30 μL blank buffer) with the opposite buffer. Dosing samples matrix matched (1:1, 30 μL study sample+30 μL blank buffer) with the opposite buffer. Samples were processed by adding acetonitrile containing internal standard (60 μL study sample+200 μL acetonitrile containing internal standard—Tolbutamide, 500 ng/mL). Samples were vortexed and centrifuged at 4000 rpm for 10 minutes. The obtained supernatant (100 μL) was diluted with 100 μL of water and transferred to fresh 96 well plates. The concentration of compounds in the samples was analyzed by liquid chromatography tandem mass spectrometry (LC-MS/MS) method using discovery grade bio-analytical method, as applicable.
The mean apparent permeability (Papp,×10^−6 cm/sec) of the test compounds, atenolol, propranolol and digoxin were calculated as follows:
[formula] where dq/dt=rate of transport (rate of transport of compound in the receiver compartment), C0=initial concentration in the donor compartment, A=surface area of the effective filter membrane.
On the technique in general: Caco-2 monolayers are a common model of the intestinal barrier.

Data set [2] concerns the target T1, Human IBAT (Homo sapiens, UniProt Q12908).
T1 construct: expressed in transfected cells; Puromycin-selected
T1 sequence (Q12908 1-348): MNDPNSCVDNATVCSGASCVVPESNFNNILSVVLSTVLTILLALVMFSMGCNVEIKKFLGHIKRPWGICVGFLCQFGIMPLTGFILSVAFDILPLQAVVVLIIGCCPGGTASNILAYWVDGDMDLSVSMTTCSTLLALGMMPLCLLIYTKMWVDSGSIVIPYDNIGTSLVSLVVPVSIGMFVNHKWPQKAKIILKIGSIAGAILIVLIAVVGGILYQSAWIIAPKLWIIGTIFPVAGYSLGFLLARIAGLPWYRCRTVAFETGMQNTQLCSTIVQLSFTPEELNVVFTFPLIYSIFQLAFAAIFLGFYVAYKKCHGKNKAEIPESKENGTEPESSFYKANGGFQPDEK
The experiment in a line: IBAT (h/m) assay, human IBAT-overexpressing cells, 3H-taurocholic acid uptake. Particulars: 0.25 μM 3H-taurocholic acid and 5 μM cold taurocholic acid, 20 minutes, read-out: hIBAT IC50. It counts as cell-based. The method, then: IBAT (h/m) Assay Protocol
10,000 cells (Human or Mouse IBAT-overexpressing cells) were seeded in 96-wells plate (Corning CLS3809) in 200 μL MEM-alpha medium (Gibco 12571-063) supplemented with 10% FBS (Gibco 10438026) containing Puromycin (Gibco A1113803) (10 μg/mL) and incubated at 37° C. in 5% CO2 for 48 hours. After incubation, media was decanted from the wells and cells were washed two times with 300 μL of basal MEM-alpha medium (FBS-free). After decanting basal MEM-alpha medium each time, plates were tapped against paper towel to ensure maximum removal of residual media. Test inhibitor dilutions (highest test concentration being 10 μM, 3-fold serial dilution, 10 points) prepared in DMSO (Sigma D2650) were added in incubation mix (maintaining 0.2% final DMSO concentration) containing 0.25 μM 3H-taurocholic acid (ARC ART-1368) and 5 μM of cold taurocholic acid (Sigma T4009). 50 μL of incubation mix containing test inhibitors was then added to the wells (in duplicate) and the plates were incubated for 20 minutes in a CO2 incubator at 37° C. After incubation, the reaction was stopped by keeping the plates on ice water mix for 2-3 minutes and then the incubation mix was aspirated completely from the wells. The wells were washed two times with 250 μL of chilled unlabelled 1 mM taurocholic acid dissolved in HEPES (Gibco 15630080)-buffered (10 mM) HBSS (Gibco 14175079) (pH 7.4). The plates were tapped against a paper towel after every wash to ensure maximum removal of blocking buffer.
100 μL of MicroScint-20 (PerkinElmer 6013621) was added to the wells and kept overnight at room temperature before reading the plates in TopCount NXT™ Microplate Scintillation and Luminescence Counter from PerkinElmer under 3H Test protocol (set at 120 seconds reading time per well).
(§1) Preparation of Test Compound Dilutions
(§2) All test compounds were provided in powder form at room temperature. 10 mM DMSO stocks of the test compounds were prepared, aliquoted and stored at −20° C. From the 10 mM DMSO stock of the compounds, a 3-fold serial dilution in DMSO was prepared to get a total of 10 dilutions of the test compounds. 0.5 μL of this dilution in DMSO was added to 250 μL of FBS-free basal media containing 3H-taurocholic acid and cold taurocholic acid to prepare the incubation mixture.

In data set [3] the target is T2, Human LBAT (Homo sapiens, UniProt Q14973).
T2 construct: expressed in transfected cells; Geneticin-selected
T2 sequence (Q14973 1-349): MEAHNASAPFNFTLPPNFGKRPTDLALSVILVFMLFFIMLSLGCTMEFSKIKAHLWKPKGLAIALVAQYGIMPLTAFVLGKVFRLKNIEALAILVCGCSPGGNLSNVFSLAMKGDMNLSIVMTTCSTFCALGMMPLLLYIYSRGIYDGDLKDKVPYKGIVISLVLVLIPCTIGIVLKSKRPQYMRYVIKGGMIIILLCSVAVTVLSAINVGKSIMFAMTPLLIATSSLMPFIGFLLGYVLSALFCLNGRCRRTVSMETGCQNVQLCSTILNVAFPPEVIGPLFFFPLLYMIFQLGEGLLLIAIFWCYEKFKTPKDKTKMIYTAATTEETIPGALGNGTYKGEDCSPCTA
Put plainly: LBAT (h/m) assay, human LBAT-overexpressing cells, 3H-taurocholic acid uptake. It counts as cell-based. The settings on record: 0.3 μM 3H-taurocholic acid and 7.5 μM cold taurocholic acid, 20 minutes, read-out: hLBAT IC50. As to the method:
LBAT (h/m) Assay Protocol
20,000 cells (Human or Mouse LBAT-overexpressing cells) were seeded in 96-wells plate (Corning CLS3809) in 100 μL MEM-alpha medium (Gibco 12571-063) supplemented with 10% FBS (Gibco 10438026) containing Geneticin (Gibco 10131-027) (1 mg/mL) and incubated at 37° C. in 5% CO2 for 24 hours. After incubation, media was decanted from the wells and cells were washed two times with 300 μL of basal MEM-alpha medium (FBS-free). After decanting basal MEM-alpha medium each time, plates were tapped against paper towel to ensure maximum removal of residual media.
For human LBAT, incubation mix was prepared by adding test inhibitor dilutions (3-fold serial dilution in DMSO (Sigma D2650), 10 points) in MEM-alpha (without FBS) containing 0.3 μM 3H-taurocholic acid (ARC ART-1368) and 7.5 μM cold taurocholic acid (Sigma T4009) (maintaining 0.2% final DMSO concentration). For mouse LBAT, incubation mix was prepared by adding test inhibitor dilutions (3-fold serial dilution in DMSO, 10 points) in MEM-alpha (without FBS) containing 0.3 μM 3H-taurocholic acid and 25 μM cold taurocholic acid maintaining 0.2% final DMSO concentration). 50 μL of incubation mix containing test inhibitors was then added to the wells (in duplicate) and the plates were incubated for 20 minutes in a CO2 incubator at 37° C. After incubation, the reaction was stopped by keeping the plates on ice water mix for 2-3 minutes and then the incubation mix was aspirated completely from the wells. The wells were washed two times with 250 μL of chilled unlabelled 1 mM taurocholic acid dissolved in HEPES (Gibco 15630080)-buffered (10 mM) HBSS (Gibco 14175079) (pH 7.4). The plates were tapped against a paper towel after every wash to ensure maximum removal of blocking buffer. 100 μL of MicroScint-20 (PerkinElmer 6013621) was added to the wells and kept overnight at room temperature before reading the plates in TopCount NXT™ Microplate Scintillation and Luminescence Counter from PerkinElmer under 3H Test protocol (set at 120 seconds reading time per well, with normal plate orientation).
as §1, §2

The structures appear in SMILES notation.

In general, Papp A→B refers to the apparent permeability from the apical to the basolateral side of a cell layer. A high value points to ready permeation. As usually defined, the IC50 is the concentration at which inhibition is half-maximal. Regarding `CCCCC1(CC)CN(c2ccccc2)c2cc(N(C)C)c(OCCC(=O)O)cc2S(=O)(=O)C1` (racemic) [Example 16, 3-((3-Butyl-7-(dimethylamino)-3-ethyl-1,1-dioxido-5-phenyl-2,3,4,5-tetrahydro-1,5-benzothiazepin-8-yl)oxy)propanoic acid], the Papp A→B at 120 min, 10 μM in data set [1] came to 17.6 ×10⁻⁶ cm/s. For the same molecule, in data set [2], the half-maximal inhibitory concentration (IC50) was determined as 3 nM.
As for `CCCCC1(C)CN(c2ccccc2)c2cc(SC)c(OCCC(=O)O)cc2S(=O)(=O)C1` (single isomer, unassigned) [Example 23, 3-((3-butyl-3-methyl-7-(methylthio)-1,1-dioxido-5-phenyl-2,3,4,5-tetrahydro-1,5-benzothiazepin-8-yl)oxy)propanoic acid], the IC50 in data set [3] stood at 182 nM; in data set [2], 334 nM.
The corresponding values for `CCCCC1(C)CN(c2ccccc2)c2cc(SC)c(OC[C@H](O)C(=O)O)cc2S(=O)(=O)C1` (single isomer, unassigned) [Example 32, 3-((3-butyl-3-methyl-7-(methylthio)-1,1-dioxido-5-phenyl-2,3,4,5-tetrahydro-1,5-benzothiazepin-8-yl)oxy)-2-hydroxypropanoic acid] are 2260 nM and 8 nM.
For `CCCCC1(CCCC)CN(c2ccccc2)c2cc(Cl)c(OCCC(=O)O)cc2S(=O)(=O)C1` [Example 8, 3-((3,3-Dibutyl-7-chloro-1,1-dioxido-5-phenyl-2,3,4,5-tetrahydro-1,5-benzothiazepin-8-yl)oxy)propanoic acid], in that order: 376 nM and 74 nM.
With `CCCCC1(CCCC)CN(c2ccc(F)c(F)c2)c2cc(SC)c(OCCC(=O)O)cc2S(=O)(=O)C1` [Example 25, 3-((3,3-dibutyl-5-(3,4-difluorophenyl)-7-(methylthio)-1,1-dioxido-2,3,4,5-tetrahydro-1,5-benzothiazepin-8-yl)oxy)propanoic acid], the results for the 50% inhibitory concentration (IC50) in data set [3] and in data set [2] were 922 nM and 18 nM, respectively.
The corresponding values for `CCCCC1(CCCC)CN(c2ccc(F)cc2)c2cc(SC)c(OCCC(=O)O)cc2S(=O)(=O)C1` [Example 26, 3-((3,3-dibutyl-5-(4-fluorophenyl)-7-(methylthio)-1,1-dioxido-2,3,4,5-tetrahydro-1,5-benzothiazepin-8-yl)oxy)propanoic acid] are 1540 nM and 10 nM.
The corresponding values for `CCCCC1(C)CN(c2ccccc2)c2cc(SC)c(OCC(O)C(=O)O)cc2S(=O)(=O)C1` (centres unmarked) [Example 31, 3-((3-butyl-3-methyl-7-(methylthio)-1,1-dioxido-5-phenyl-2,3,4,5-tetrahydro-1,5-benzothiazepin-8-yl)oxy)-2-hydroxypropanoic acid] are 359 nM and 10 nM.
On to `CCCCC1(CC)CN(c2ccccc2)c2cc(SC)c(OCC(O)C(=O)O)cc2S(=O)(=O)C1` (centres unmarked) [Example 39, 3-((3-butyl-3-ethyl-7-(methylthio)-1,1-dioxido-5-phenyl-2,3,4,5-tetrahydro-1,5-benzothiazepin-8-yl)oxy)-2-hydroxypropanoic acid], for which the figures for the IC50 in data set [3] and in data set [2] were 613 nM and 4 nM, respectively.
For `CCCCC1(CC)CN(c2ccc(F)cc2)c2cc(SC)c(OCC(O)C(=O)O)cc2S(=O)(=O)C1` (centres unmarked) [Example 41, 3-((3-Butyl-3-ethyl-5-(4-fluorophenyl)-7-(methylthio)-1,1-dioxido-2,3,4,5-tetrahydro-1,5-benzothiazepin-8-yl)oxy)-2-hydroxypropanoic acid], in that order: 495 nM and 3 nM.
As for `CCCCC1(CCCC)CN(c2ccccc2)c2cc(OC)c(OCCC(=O)O)cc2S(=O)(=O)C1` [Example 45, 3-((3,3-Dibutyl-7-methoxy-1,1-dioxido-5-phenyl-2,3,4,5-tetrahydro-1,5-benzothiazepin-8-yl)oxy)propanoic acid], the figures for the concentration for half-maximal inhibition (IC50) in data set [3] and in data set [2] were > 6670 nM and 11 nM, respectively.

The record behind these values is US11773071B2, “Benzothiazepine compounds and their use as bile acid modulators” (Albireo AB, priority 2019, dated 2023).
